According to US9840488B2, “Carbon monoxide releasing molecules and associated methods” (Utah State University, priority 2015, dated 2017):
Converted amounts (≈) assume the structure as drawn. “Also recorded” adds a separate entry of the source. Like-named read-outs stand apart in the source and are kept apart here.

Assays:
[1] = format: physicochemical; details: for quantum yield Φ of CO-release reaction / eq. CO released: aerobic CH3CN; for eq. CO released: average of three trials
Protocol: ^1H and ^13C{^1H} NMR spectra (in ppm) were collected using JEOL ECX-300 MHz spectrometer and are referenced to the residual solvent peak in CDCl3 (^1H: 7.26 (singlet) ppm; ^13C 77.16 (singlet) ppm) or DMSO-d6 (^1H: 2.50 ppm (quintet)). J values are given in Hz. IR spectra were collected using a Shimadzu FTIR-8400 as potassium bromide pellets. UV-vis spectra were recorded at ambient temperature using a Hewlett-Packard 8453A diode array spectrophotometer. Fluorescence emission spectra were collected using a Shimadzu RF-530XPC spectrometer in the range of 400-800 nm, with the excitation wavelength corresponding to the absorption maxima of the molecules. The excitation and emission slit widths were set at 1.5 nm for all molecules. Mass spectral data was collected at the Mass Spectrometry Facility, University of California, Riverside. ESI/APCI mass spectra were recorded on an Agilent LCTOF (2006) with a Windows XP based operating system. Elemental analyses were performed by Atlantic Microlab, Inc., Norcross, Ga., using a PE2400 automatic analyzer or at Robertson Microlit Laboratories, Ledgewood, N.J. using a Perkin Elmer CHN Analyzer Model 2400, Series II. […] Quantum yields were determined using potassium ferrioxalate or potassium reinekate as standards to measure photon flux.^[36] Carbon monoxide was quantified as previously described.^[37] […]
A solution of 5 in CD3CN (˜3 mM) was prepared in air under minimal red light and placed in an NMR tube. The NMR tube was then covered with foil, placed in a photo reactor, and irradiated using 419 nm lamps for 24 hours.
A solution of 5 in CD3CN (˜3 mM) was prepared under N2 in a glove box and placed in an NMR tube. The NMR tube was then placed in a photo reactor and irradiated using 419 nm lamps for 24 hours. […]

[2] = tested on: S. aureus (ATCC 33591-MRSA); test: Minimum inhibitory concentration, blue light vs dark; format: cell-based; parameters: key to Minimum inhibitory concentration (MIC): †: No inhibitory effect against bacterial strain
E. coli (ATCC 25922) = test: as above; format: cell-based; parameters: key to Minimum inhibitory concentration (MIC): †: No inhibitory effect against bacterial strain
S. aureus (ATCC 25923) = test: as above; format: cell-based; parameters: key to Minimum inhibitory concentration (MIC): †: No inhibitory effect against bacterial strain
[3] = tested on: A549 human adenocarcinoma cells; test: MTT cell viability assay, A549 cells; format: cell-based
Protocol: (§1) Jurkat (JM) cells were maintained as previously described by Shorey et al.^[39] A549 human adenocarcinoma cells (ATCC, Manassas, Va.) cells were grown in DMEM/Ham's F-12 1:1 mixture medium supplemented with 10% charcoal-stripped, heat-inactivated fetal bovine serum (FBS; Caisson Laboratories, Logan, Utah) in a humidified incubator at 37° C. with 5% CO2. Cytotoxicity was determined by the colorimetric MTT [3-(4,5-dimethyl-2-thiazolyl)-2,5-diphenyl-2H-tetrazoluim bromide] assay as previously describe.^[40] Briefly, 2.1×10^3 cells/ml for A549 cells or 1×10^5 cells/ml for Jurkat cells. Test compounds were prepared in DMSO, then added to culture media for a maximum final DMSO concentration not greater than 0.1% (v/v). After addition of test compounds at concentrations ranging from 80 nM to 100 μM, cells were incubated for 24 h in the dark, then treated with MTT to assess cell viability as outlined previously.^[40] All experiments were independently replicated three times, and each experimental treatment was performed in triplicate.

[4] = Solubility and solution stability
[5] = biological target: T1, bovine serum albumin (BSA) (Bos taurus, UniProt P02769); test: BSA binding by fluorescence quenching, competitive binding and docking
Jurkat (JM) cells = test: MTT cell viability assay, Jurkat cells; format: cell-based, human
Protocol: as §1

A549 cells = test: Cellular uptake by fluorescence microscopy; format: cell-based, human
Protocol: A549 cells were maintained in culture as described above, then seeded into seeded into Millicell E-Z-Slide culture chambers (EMD Millipore, Billerica, Mass.) at an initial density of 7.5×10^4 cells/cm^2 and allowed to adhere to the chamber slides for 24 hr. The cells were then treated for 1 hr with the nuclear dye Hoechst 33342 (0.5% v/v) for 10 min, followed by three washes with plain culture media to remove residual dye. All of incubation and wash steps described below were performed in the dark with minimal light exposure. A 100 mM stock solution of compound 5 was prepared in DMSO and then diluted to a working concentration of 2 mM in culture media (DMEM/Ham's F-12). The compound 5 working stock was diluted again to a final concentration of 50 μM in the culture chamber media, and the cells were incubated for 1 hr. The culture chamber was then gently washed thrice with plain culture media. Cells were fixed with a 1:10 (v/v) solution of formaldehyde fixative (Immunochemistry Technologies, Bloomington, Minn.) and culture media for 5 min, then washed twice with plain culture media. Finally, cells were imaged using a Zeiss Axio Observer inverted microscope (Carl Zeiss Microscopy, Thornwood, N.Y.) equipped with fluorescence detection. Images were acquired using a 10× objective with excitation λ of 450-490 nm (BP 470/40 filter) and emission λ of 500-550 nm (BP 525/50 filter) for detection of compound 5 in A549 cells following 30 sec, 3 min or 10 min exposure to visible light. Also, for localization of the Hoechst dye, a single fluorescence image was acquired at excitation λ at 365 nm; emission λ of 420-470 nm (BP 445/50 filter). Acquired images were universally adjusted to enhance contrast levels (same settings for all acquired images for each detection channel) using Adobe Photoshop CS6 (Adobe, San Jose, Calif.).

[6] = biological target: T1, bovine serum albumin (BSA); details: literature value, cited from earlier work

T1 sequence (P02769 25-607): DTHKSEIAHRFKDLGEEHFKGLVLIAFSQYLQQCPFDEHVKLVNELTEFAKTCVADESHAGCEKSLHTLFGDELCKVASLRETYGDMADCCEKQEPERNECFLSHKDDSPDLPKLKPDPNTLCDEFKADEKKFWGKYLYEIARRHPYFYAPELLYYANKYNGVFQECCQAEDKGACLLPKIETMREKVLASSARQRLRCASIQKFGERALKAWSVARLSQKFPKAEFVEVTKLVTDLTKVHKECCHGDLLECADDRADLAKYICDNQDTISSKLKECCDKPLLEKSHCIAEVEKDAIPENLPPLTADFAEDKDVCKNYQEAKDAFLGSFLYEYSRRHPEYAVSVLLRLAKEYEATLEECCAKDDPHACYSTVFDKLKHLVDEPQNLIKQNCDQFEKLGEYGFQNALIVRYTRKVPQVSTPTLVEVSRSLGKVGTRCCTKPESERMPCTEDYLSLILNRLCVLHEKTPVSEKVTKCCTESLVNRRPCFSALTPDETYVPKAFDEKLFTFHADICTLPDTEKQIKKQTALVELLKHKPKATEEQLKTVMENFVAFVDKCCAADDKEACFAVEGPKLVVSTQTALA

## 3-acetate-2-phenyl-benzo[g]chromen-4-one [Compound 12]
[1]
  stability to visible light relative to 5: significantly more stable

## O=c1c(O)c(-c2ccccc2)oc2ccccc12 [3-hydroxyflavone, reference compound]
[1]; photoinduced reaction with O2, λirr=300 nm
  eq. CO generated: 0.95 eq

## O=c1c(O)c(-c2ccccc2)oc2cc3ccccc3cc12 [Compound 5, 3-Hydroxy-2-phenyl-benzo[g]chromen-4-one]
[2]; Dark Conditions
  Minimum inhibitory concentration (MIC): †
[2]; Staphylococcus aureus, Light Conditions (blue light)
  MIC: 55.5 µg/mL (≈ 193 µM)
E. coli (ATCC 25922); Dark Conditions
  Minimum inhibitory concentration (MIC): †
E. coli (ATCC 25922); Escherichia coli, ATCC25922, Light Conditions (blue light)
  MIC: 27.8 µg/mL (≈ 96.4 µM)
[1]; CD3CN in air, tube covered with foil, 419 nm lamps, 24 hours, 1H NMR
  dark control reaction: no reaction had occurred
[1]; CD3CN under N2, 419 nm lamps, 24 hours, 1H NMR
  anaerobic control reaction: no reaction had occurred
[1]; 419 nm irradiation
  quantum yield Φ of CO-release reaction: 0.007(3)
  eq. CO released: 0.96(2) eq
[1]; compound bound to BSA
  decrease in the rate of light induced CO-release on binding to BSA: two-fold
[1]; methanol and 1:1 H2O:DMSO, 1H NMR and GC head space gas analysis
  photoinduced CO-release reaction in other solvents: same reaction occurs
S. aureus (ATCC 25923); Dark Conditions
  Minimum inhibitory concentration (MIC): †
S. aureus (ATCC 25923); Staphylococcus aureus, ATCC25923, Light Conditions (blue light)
  MIC: 39.4 µg/mL (≈ 137 µM)
[3]
  toxicity by MTT cell viability assay: minimal toxicity
[3]; Homo sapiens, 24 h in the dark, MTT
  IC50: 41.5 µM
[4]; 1:1 H2O:DMSO, 0.1% DMSO/RPMI cell culture media
  solubility in aqueous DMSO: soluble
[4]; CH3CN, CH2Cl2, CHCl3, DMSO
  solubility in organic solvents: readily soluble
[4]; acetonitrile, 1:1 DMSO:H2O, or 0.1% DMSO:cell culture media (RPMI-1640; pH=7.4), protected from light
  solution stability in the presence of ambient O2: > 2 weeks
[5]; competitive binding with warfarin and ibuprofen, AutoDock Vina docking
  binding site on BSA: site 1 (subdomain II A)
[5]; fluorescence quenching, single binding site
  binding affinity to BSA: 3200 M⁻¹
Jurkat (JM) cells
  toxicity by MTT cell viability assay: minimal toxicity
A549 cells; 50 μM, 1 hr incubation
  cellular uptake / cell permeability: cell permeable; also recorded: taken up by almost all cells
A549 cells; 1 hr incubation
  intracellular localization: localized primarily to the cytoplasm
A549 cells; ten minutes visible light
  loss of green fluorescence in cells on exposure to visible light: complete loss
other
  melting point: 208 to 210 °C

## O=C(Oc1cc2ccccc2cc1C(=O)O)c1ccccc1 [Compound 6, 3-(benzoyloxy)-2-naphthoic acid]
[3]
  toxicity by MTT cell viability assay: completely non-toxic
Jurkat (JM) cells
  toxicity by MTT cell viability assay: completely non-toxic

## CCN(CC)c1ccc(-c2oc3cc4ccccc4cc3c(=O)c2O)cc1 [Compound 7, 2-(4-(diethylamino)phenyl)-3-hydroxy-4H-benzo[g]chromen-4-one]
[1]; 419 nm irradiation
  quantum yield Φ of CO-release reaction: 0.006(1)
  eq. CO released: 0.99(1) eq
other
  melting point: 191 to 192 °C

## Oc1c(-c2ccccc2)oc2cc3ccccc3cc2c1=S [Compound 8, 3-Hydroxy-2-phenyl-4H-benzo[g]chromene-4-thione]
[1]; 419 nm irradiation
  quantum yield Φ of CO-release reaction: 0.426(3)
  eq. CO released: 1.01(1) eq

## CCN(CC)c1ccc(-c2oc3cc4ccccc4cc3c(=S)c2O)cc1 [Compound 9, 2-(4-(diethylamino)phenyl)-3-hydroxy-4H-benzo[g]chromene-4-thione]
[1]; >546 nm irradiation
  quantum yield Φ of CO-release reaction: 0.20(1)
  eq. CO released: 1.01(1) eq

## COc1cccc2c1C(=O)c1c(O)c3c(c(O)c1C2=O)C[C@@](O)(C(=O)CO)C[C@@H]3O[C@H]1C[C@H](N)[C@H](O)[C@H](C)O1 [doxorubicin]
[6]
  binding affinity to BSA: 7300 M⁻¹

## O=c1c(O)c(-c2ccc(O)c(O)c2)oc2cc(O)cc(O)c12 [quercetin]
[6]; unit not given
  binding affinity to BSA: 3.65×10^7
